According to BindingDB's records for doi:10.1021/jm00140a010 (1982):
Structures can show the parent of a compound that is named as a salt.

Target: Angiotensin-converting enzyme
Experiment: Concentration required to inhibit the activity of Angiotensin I converting enzyme by 50%

| IC50 [nM] | Structure (SMILES) |
| --- | --- |
| 1200 | O=C(NC(Cc1ccccc1)=C(CCC(=O)N1CCC[C@H]1C(=O)O)NO)c1ccccc1 [1-(5-Benzoylamino-4-hydroxyimino-6-phenyl-hexanoyl)-pyrrolidine-2-carboxylic acid] |
| 180 | O=C(CCC(=O)C(Cc1ccccc1)NC(=O)c1ccccc1)NC(Cc1ccccc1)C(=O)OCc1ccccc1 (stereo not given) [2-(5-Benzoylamino-4-oxo-6-phenyl-hexanoylamino)-3-phenyl-propionic acid benzyl ester] |
| 15 | O=C(NC(Cc1cccnc1)C(=O)CCC(=O)N1CCC[C@H]1C(=O)OCc1ccccc1)c1ccccc1 (stereo not given in full) [1-(5-Benzoylamino-4-oxo-6-pyridin-3-yl-hexanoyl)-pyrrolidine-2-carboxylic acid benzyl ester] |
| 240 | O=C(NC(Cc1ccccc1)C(=O)CCC(=O)N1CCC[C@H]1C(=O)O)OCc1ccccc1 (stereo not given in full) [1-(5-Benzyloxycarbonylamino-4-oxo-6-phenyl-hexanoyl)-pyrrolidine-2-carboxylic acid] |
| 28 | O=C(CCC(=O)C(Cc1ccccc1)NC(=O)c1ccccc1)N[C@H](Cc1ccccc1)C(=O)O (stereo not given in full) [2-(5-Benzoylamino-4-oxo-6-phenyl-hexanoylamino)-3-phenyl-propionic acid] |
| 1.4 | O=C(NC(Cc1ccccc1)C(=O)CCC(=O)N1CCC[C@H]1C(=O)O)c1ccco1 (stereo not given in full) [1-{5-[(Furan-2-carbonyl)-amino]-4-oxo-6-phenyl-hexanoyl}-pyrrolidine-2-carboxylic acid] |
| 8600 | CC(C)(C)OC(=O)[C@@H]1CCCN1C(=O)CCC(=O)C(Cc1ccc(OCc2ccccc2)cc1)NC(=O)c1ccccc1 (stereo not given in full) [1-[5-Benzoylamino-6-(4-benzyloxy-phenyl)-4-oxo-hexanoyl]-pyrrolidine-2-carboxylic acid tert-butyl ester] |
| 4.7 | O=C(NC(Cc1ccc(O)cc1)C(=O)CCC(=O)N1CCC[C@H]1C(=O)O)c1ccccc1 (stereo not given in full) [1-[5-Benzoylamino-6-(4-hydroxy-phenyl)-4-oxo-hexanoyl]-pyrrolidine-2-carboxylic acid] |
| 1600 | Cc1ccccc1C(=O)NC(Cc1ccccc1)C(=O)CCC(=O)N1CCC[C@H]1C(=O)OCc1ccccc1 (stereo not given in full) [1-[5-(2-Methyl-benzoylamino)-4-oxo-6-phenyl-hexanoyl]-pyrrolidine-2-carboxylic acid benzyl ester] |
| 10 | O=C(NC(Cc1ccc(OCc2ccccc2)cc1)C(=O)CCC(=O)N1CCC[C@H]1C(=O)O)c1ccccc1 (stereo not given in full) [1-[5-Benzoylamino-6-(4-benzyloxy-phenyl)-4-oxo-hexanoyl]-pyrrolidine-2-carboxylic acid] |
| 46 | Cc1ccccc1C(=O)NC(Cc1ccccc1)C(=O)CCC(=O)N1CCC[C@H]1C(=O)O (stereo not given in full) [1-[5-(2-Methyl-benzoylamino)-4-oxo-6-phenyl-hexanoyl]-pyrrolidine-2-carboxylic acid] |
| 1.4 | COc1ccc(CC(NC(=O)c2ccccc2)C(=O)CCC(=O)N2CCC[C@H]2C(=O)O)cc1OC (stereo not given in full) [1-[5-Benzoylamino-6-(3,4-dimethoxy-phenyl)-4-oxo-hexanoyl]-pyrrolidine-2-carboxylic acid] |
| 20 | O=C(CCC(=O)N1CCC[C@H]1C(=O)O)C(Cc1ccccc1)NC(=O)C1CCCO1 (stereo not given in full) [1-{4-Oxo-6-phenyl-5-[(tetrahydro-furan-2-carbonyl)-amino]-hexanoyl}-pyrrolidine-2-carboxylic acid] |
| 42 | O=C(NC(Cc1ccccc1)C(=O)CCCC(=O)N1CCC[C@H]1C(=O)O)c1ccccc1 (stereo not given in full) [1-(6-Benzoylamino-5-oxo-7-phenyl-heptanoyl)-pyrrolidine-2-carboxylic acid] |
| 150 | NC(=O)[C@@H]1CCCN1C(=O)CCC(=O)C(Cc1ccccc1)NC(=O)c1ccccc1 (stereo not given in full) [1-(5-Benzoylamino-4-oxo-6-phenyl-hexanoyl)-pyrrolidine-2-carboxylic acid amide] |
| 5.7 | O=C(NC(Cc1cccnc1)C(=O)CCC(=O)N1CCC[C@H]1C(=O)O)c1ccccc1 (stereo not given in full) [1-(5-Benzoylamino-4-oxo-6-pyridin-3-yl-hexanoyl)-pyrrolidine-2-carboxylic acid] |
| 330 | CC(=O)NC(Cc1ccccc1)C(=O)CCC(=O)N1CCC[C@H]1C(=O)O (stereo not given in full) [1-(5-Acetylamino-4-oxo-6-phenyl-hexanoyl)-pyrrolidine-2-carboxylic acid] |
| 300 | CC(NC(=O)c1ccccc1)C(=O)CCC(=O)N1CCC[C@H]1C(=O)O (stereo not given in full) [1-(5-Benzoylamino-4-oxo-hexanoyl)-pyrrolidine-2-carboxylic acid] |
| 86 | O=C(NC(Cc1ccc(OCc2ccccc2)cc1)C(=O)CCC(=O)N1CCC[C@H]1C(=O)OCc1ccccc1)c1ccccc1 (stereo not given in full) [1-[5-Benzoylamino-6-(4-benzyloxy-phenyl)-4-oxo-hexanoyl]-pyrrolidine-2-carboxylic acid benzyl ester] |
| 25000 | NC(Cc1ccccc1)C(=O)CCC(=O)N1CCC[C@H]1C(=O)O (stereo not given in full) [1-(5-Amino-4-oxo-6-phenyl-hexanoyl)-pyrrolidine-2-carboxylic acid; hydrochloride] |
